# Literature values in patent publication US20070238698A1, “Method for manufacturing drinking water having chitosan” (Hsien-Chih Lin, priority 2006, published 2007).
# Experiments:
# Conditions in all cases: added to drinking water; experiments to animals
# [1] = system: inoculated tumors
# [2] = system: huge corrosion cell having ability of immunity
# [3] = system: enteric microflora
substance,measurement,setting,value
chitosan oligosaccharide,effect on inoculated tumors,[1],reduced the inoculated tumors
same,effect on huge corrosion cell having ability of immunity,[2],increase the huge corrosion cell having ability of immunity
same,effect on enteric microflora of animals,[3],improve the enteric microflora of animals
